Laboratory results: PMC6277767, “Broad and Region-Specific Impacts of the Synthetic Cannabinoid CP 55,940 in Adolescent and Adult Female Mouse Brains” (Frontiers in Molecular Neuroscience, 2018)

System: CD1 female mouse brain lipidome
Assay: Brain-region lipid levels (HPLC/MS/MS lipidomics) 2 h after single i.p. 3 mg/kg CP 55,940 vs vehicle
Assay type: in vivo
Parameters: N-arachidonoyl phenylalanine level, Mean / N-stearoyl tryptophan level, Mean / N-stearoyl proline level, Mean / N-stearoyl leucine level, Mean / N-stearoyl phenylalanine level, Mean / N-stearoyl serine level, Mean / N-stearoyl methionine level, Mean: unit: moles per gram
Conditions: brainstem, PND 50, 3 mg/kg CP 55,940
Protocol: The Bloomington Institutional Animal Care and Use Committee of Indiana University reviewed and approved the animal procedures. Female mice from the CD1 strain were utilized to match our study examining THC’s effects on the brain lipidome ([Leishman et al., 2018]). Mice were given a single i.p. injection of either 3 mg/kg CP or 1:1:18 cremophor:ethanol:saline vehicle (please refer to the section “3 mg/kg CP Is Relevant for Synthetic Cannabinoid Abuse and Has Stronger Effects on the Female Mouse Brain Lipidome During Adolescence” for a justification of dose and use of female mice). Three different age groups were given injections: PND 35 and PND 50 adolescents, and adult mice (PND 113). At least eight mice in each age group received CP and at least eight received vehicle. Matching the THC study time course ([Leishman et al., 2018]), mice were sacrificed via rapid decapitation 2 h after injection. Brains were immediately removed and flash-frozen in liquid nitrogen, and then stored at -80°C until dissections were performed. Brains were dissected on an ice-cold dissection plate into the following regions: STR, HIPP, CER, THAL, CTX, HYP, MID, and STEM. These abbreviations for these brain areas will be used exclusively when discussing the results generated by these specific dissections. Each dissected area was immediately placed in liquid nitrogen and then stored at -80°C until used for lipid extraction.
Tissue extracts were performed as previously described ([Bradshaw et al., 2006]; [Stuart et al., 2013]; [Raboune et al., 2014]; [Leishman et al., 2016a],[b], [2017], [2018]). First, samples were shock frozen in liquid nitrogen, weighed, and transferred to a centrifuge tube. The mass of the largest sample was multiplied by 50 to determine how many milliliters of HPLC-grade methanol (Fisher, Fair Lawn, NJ, United States) to add. Then, samples were spiked with 500 pmol deuterium-labeled NAGly (d8NAGly; Cayman Chemical, Ann Arbor, MI, United States). Samples were placed on ice in darkness for 2 h then individually homogenized and centrifuged at 19,000 × g for 20 min at 20°C. Supernatants were diluted with HPLC water (purified in house) to make a solution of 75% water, 25% supernatant. Lipids were partially purified on C18 solid phase extraction columns (Agilent, Palo Alto, CA, United States). A series of four elutions with 1.5 mL of 60%, 75%, 85%, and 100% methanol were collected ([Stuart et al., 2013]; [Leishman et al., 2016a],[b], [2018]).
As previously described ([Bradshaw et al., 2006]; [Tan et al., 2006]; [Smoum et al., 2010]; [Stuart et al., 2013]; [Tortoriello et al., 2013]; [Raboune et al., 2014]; [Leishman et al., 2016a],[b], [2017], [2018]), samples were analyzed using an Applied Biosystems API 3000 triple quadrupole mass spectrometer with electrospray ionization (Foster City, CA, United States). Using an Agilent XDB-C18 reversed phase analytical column and optimized mobile phase gradients, 20 μL from each elution were chromatographed. Two Shimadzu 10ADvp pumps (Columbia, MD, United States) provided the pressure for gradient elution. Mobile phase A: 20% methanol, 80% water (v/v) and 1 mM ammonium acetate (Sigma, St. Louis, MO, United States). Mobile phase B: 100% methanol, 1 mM ammonium acetate. Every method run began with 0% mobile phase B, reached 100% mobile phase B flowing at 0.2 mL/min, and gradually returned to 0% mobile phase B.
This screening library will be referred to as the lipidome when discussing data from this study. HPLC/MS/MS data were analyzed using Analyst software (Applied Biosystems) ([Bradshaw et al., 2006]; [Tan et al., 2006]; [Stuart et al., 2013]; [Tortoriello et al., 2013]; [Raboune et al., 2014]; [Leishman et al., 2016a],[b], [2017], [2018]). Chromatograms (Supplementary Figure 3) were generated by determining the retention time of analytes from the analytical column with a [M-1] or [M+1] parent peak and a fragmentation peak corresponding to the programmed values. […]

With CCCCCCC(C)(C)c1ccc([C@@H]2C[C@H](O)CC[C@H]2CCCO)c(O)c1 [CP 55,940] the “N-arachidonoyl glycine level, Mean” value was 9.26E-12, the “N-arachidonoyl methionine level, Mean” value was “PISSR” and the “N-arachidonoyl phenylalanine level, Mean” value was 3.18E-13. For the same compound, the “N-arachidonoyl proline level, Mean” value was “BDL”, the “N-arachidonoyl serine level, Mean” value was 5.36E-12 and the “N-arachidonoyl taurine level, Mean” value was 1.14E-11. The “N-arachidonoyl tryptophan level, Mean” value was “BDL”, the “N-arachidonoyl tyrosine level, Mean” value was 2.42E-13 and the “N-docosahexaenoyl GABA level, Mean” value was 9.05E-13. The “N-docosahexaenoyl alanine level, Mean” value was “PISSR”, the “N-docosahexaenoyl ethanolamine level, Mean” value was 3.73E-11 and the “N-docosahexaenoyl glycine level, Mean” value was 1.5E-12. The “N-docosahexaenoyl leucine level, Mean” value was 1.24E-13, the “N-docosahexaenoyl methionine level, Mean” value was “PISSR” and the “N-docosahexaenoyl phenylalanine level, Mean” value was 1.89E-13. The “N-docosahexaenoyl proline level, Mean” value was “BDL”, the “N-docosahexaenoyl serine level, Mean” value was 1.33E-11 and the “N-docosahexaenoyl tryptophan level, Mean” value was “BDL”. The “N-docosahexaenoyl tyrosine level, Mean” value was 4.65E-13, the “N-docosahexaenoyl valine level, Mean” value was “BDL” and the “N-linoleoyl GABA level, Mean” value was 6.01E-13. The “N-linoleoyl alanine level, Mean” value was 1.01E-13, the “N-linoleoyl ethanolamine level, Mean” value was 3.38E-11 and the “N-linoleoyl glycine level, Mean” value was 4.12E-13. For the same compound, the “N-linoleoyl leucine level, Mean” value was 4.41E-14, the “N-linoleoyl methionine level, Mean” value was “PISSR” and the “N-linoleoyl phenylalanine level, Mean” value was “PISSR”. For the same compound, the “N-linoleoyl proline level, Mean” value was “BDL”, the “N-linoleoyl serine level, Mean” value was 6.34E-11 and the “N-linoleoyl tryptophan level, Mean” value was “BDL”. The “N-linoleoyl tyrosine level, Mean” value was “PISSR”, the “N-linoleoyl valine level, Mean” value was “BDL” and the “N-nervonoyl valine level, Mean” value was “BDL”. For the same compound, the “N-oleoyl GABA level, Mean” value was 3.95E-12, the “N-oleoyl alanine level, Mean” value was 1.3E-12 and the “N-oleoyl dopamine level, Mean” value was “BDL”. For the same compound, the “N-oleoyl ethanolamine level, Mean” value was 7.29E-11, the “N-oleoyl glycine level, Mean” value was 5.38E-12 and the “N-oleoyl leucine level, Mean” value was 4.93E-13. For the same compound, the “N-oleoyl methionine level, Mean” value was 1.84E-13, the “N-oleoyl phenylalanine level, Mean” value was 7.71E-13 and the “N-oleoyl proline level, Mean” value was “BDL”. The “N-oleoyl serine level, Mean” value was 1.1E-10, the “N-oleoyl tryptophan level, Mean” value was “BDL” and the “N-oleoyl tyrosine level, Mean” value was 2.91E-13. For the same compound, the “N-oleoyl valine level, Mean” value was 6.02E-14, the “N-palmitoyl GABA level, Mean” value was 6.41E-12 and the “N-palmitoyl alanine level, Mean” value was 3.07E-12. For the same compound, the “N-palmitoyl ethanolamine level, Mean” value was 6.28E-11, the “N-palmitoyl glycine level, Mean” value was 1.47E-11 and the “N-palmitoyl leucine level, Mean” value was 1.11E-12.
